Measured values reported in US20140080128A1, “METHOD FOR DETERMINING WHETHER A SUBJECT IS AT RISK OF HAVING OR DEVELOPING A CHRONIC KIDNEY DISEASE” (Institut National de Ia Sante et de la Recherche Medicale …, priority 2011, published 2014).

How the values were obtained:
Assay type in all cases: in vivo, Sprague-Dawley rats
[1] = system: periostin, vimentin expression in renal cortex; test: Real time quantitative PCR (and immunoblotting) of markers in renal cortex of L-NAME rat model; conditions: for periostin mRNA up-regulation in kidney (RT-qPCR): rats, versus baseline
Description: Male Sprague-Dawley rats, weighing 250 g, were maintained on a normal-salt diet and had free access to chow and tap water. NO synthesis was inhibited by L-NAME (orally, 15 mg·kg-1·day-1). […] When proteinuria exceeded 1 g/mmol creatinine (after 5 or 6 weeks), a group of animals was killed to allow estimations of renal hemodynamics and morphological parameters just before the beginning of therapy (LN 6w group, n=10). The remaining animals were divided into two subgroups for an additional experimental period of 4 weeks: in the first subgroup, L-NAME was given alone (LN 10w group, n=12); in the second subgroup treatment was accompanied by the administration of an AT1 receptor antagonist (Losartan, orally 30 mg·kg-1·day-1, Merck Sharp and Dohme-Chibret). At the end of Losartan treatment, we separated the animals of the second group in two subgroups: animals with normal creatininemia below 50 μmol/l (LN reg n=14) and animals with a creatininemia above 70 μmol/l (LN no reg n=15). The doses of the drugs were based on pilot experiments and previously published studies. Control animals were sacrificed at 6 and 10 week. Since control animals gave similar results for all measured parameters, pooled data are presented (C group, n=8). Others animals received Losartan during 4 weeks as additional control group (LOS group, n=3). All protocols and treatments were performed with the approval of the French government ethics committee. We extracted RNA from the renal cortex and the abdominal aorta using TRIzol solution (Life Technologies BRL, Gaithersburg, Md.). RNA quality was checked by measuring the ratio of optical densities at 260 and 280 nm and residual genomic DNA was removed by DNase I treatment for 30 min at 37° C. (Fermentas). We used reverse transcription with Revert Aid H minus First Strand DNA Synthesis kit (Fermentas) to convert 1 μg RNA into cDNA, which was then amplified by PCR using a LightCycler 480 (Roche Diagnostic) using SYBR Green (Fast Start DNA Master SYBRGreen I; Roche Applied Science, Roche Diagnostic), specific primers for POST, Col3A1, ESel, Vimentin, VCAM-1 and hypoxanthine-guanine phosphoribosyltransferase (HPRT) as housekeeping gene under the following conditions: 95° C. for 5 min, and 45 cycles at 95° C. for 15 s and 60° C. for 15 s, then 72° C. for 15 s. Specific primers were designed by Universal Probe Library system (UPL, Roche Applied Science). To normalize the Q-PCR results we used Roche LightCycler 2.0 software (Roche Diagnostic). We expressed results as 2-[…], where Cp is the cycle threshold number. We analyzed dissociation curves after each run for each amplicon to access the specificity of quantification when using SYBR Green. 25 μg of protein extracts obtained by RIPA buffer lysis of renal cortex were fractionated by SDS-PAGE NuPAGE 4/12% gels (Invitrogen) under reducing conditions using an XCell SureLockTM Mini-Cell (NuPAGE, Invitrogen, San Diego, Calif., USA) as described by the manufacturer and transferred onto a nitrocellulose membrane (Immobilon-P, Millipore, Billerica, Mass., USA) prior to detection of the POST (Biovendor) or β-actin (Imgenex, Clinisciences, France) protein with a specific rabbit polyclonal primary Ab (dilution 1/1000 and 1/5000 respectively) and a peroxidase-labelled IgG anti-rabbit secondary Ab (dilution 1/4000). The membrane was detected by enhanced chemiluminescence (ECL)-plus kit (Amersham Biosciences, Piscataway, N.J., USA) on autoradiography films (Fuji).

[2] = system: Hypertension-Induced Renal Disease Rat Model (L-NAME); test: Urinary protein excretion and plasma creatinine in L-NAME rat model
Description: (§1) Male Sprague-Dawley rats, weighing 250 g, were maintained on a normal-salt diet and had free access to chow and tap water. NO synthesis was inhibited by L-NAME (orally, 15 mg·kg-1·day-1). […] When proteinuria exceeded 1 g/mmol creatinine (after 5 or 6 weeks), a group of animals was killed to allow estimations of renal hemodynamics and morphological parameters just before the beginning of therapy (LN 6w group, n=10). The remaining animals were divided into two subgroups for an additional experimental period of 4 weeks: in the first subgroup, L-NAME was given alone (LN 10w group, n=12); in the second subgroup treatment was accompanied by the administration of an AT1 receptor antagonist (Losartan, orally 30 mg·kg-1·day-1, Merck Sharp and Dohme-Chibret). At the end of Losartan treatment, we separated the animals of the second group in two subgroups: animals with normal creatininemia below 50 μmol/l (LN reg n=14) and animals with a creatininemia above 70 μmol/l (LN no reg n=15). The doses of the drugs were based on pilot experiments and previously published studies. Control animals were sacrificed at 6 and 10 week. Since control animals gave similar results for all measured parameters, pooled data are presented (C group, n=8). Others animals received Losartan during 4 weeks as additional control group (LOS group, n=3). All protocols and treatments were performed with the approval of the French government ethics committee. Urine samples were collected for a 4-h period. Urinary protein concentration was normalized to creatinine concentration, and values were expressed as grams protein per millimole creatinine. Blood samples were withdrawn on the last day of the study, and plasma creatinine (nmol/l) was measured by automated Jaffe's method.

[3] = system: Hypertension-Induced Renal Disease Rat Model (L-NAME); test: Renal hemodynamics (arterial pressure, renal blood flow) in L-NAME hypertension-induced renal disease rat model; conditions: for MAP (mean arterial pressure): L-NAME orally 15 mg/kg/day
Description: as §1, with “committee.” for “committee. Urine samples were collected for a 4-h period. Urinary protein concentration was normalized to creatinine concentration, and values were expressed as grams protein per millimole creatinine. Blood samples were withdrawn on the last day of the study, and plasma creatinine (nmol/l) was measured by automated Jaffe's method.”
After anesthesia by pentobarbital sodium (50-60 mg/kg body wt ip, Nembutal, Abbott, Chicago, Ill.), animals were placed on a servo-controlled table kept at 37° C. and the trachea was cannulated to facilitate respiration. The left femoral artery was catheterized for measurement of arterial pressure, and a femoral venous catheter was used for infusion of volume replacement. An ultrasound transit-time flow probe (1RB, Transonic, Ithaca, N.Y.) was placed around the left renal artery. Bovine serum albumin (4.7 g/dl of saline solution) was infused initially at 50 μl/min to replace surgical losses, and then at 10 μl/min for maintenance. Arterial pressure was measured via a pressure transducer (Statham P23 DB); RBF was measured by a flowmeter (T 420, low-pass filter, 40 Hz, Transonic). RBF values were controlled for zero offset determined at the end of an experiment after cardiac arrest. Data were recorded, stored, and analyzed using a DataTranslation analog-to-digital converter and the IOX software (EMKA Technologies, Paris, France).

[4] = system: CD3+ lymphocytes in renal cortex; test: Immunohistochemistry for CD3 in kidney of L-NAME rat model; conditions: rats, after 6 and 10 weeks LNAME treatment
Description: as §1, with “[…] Quantification of CD3-positive cells was” for “Others animals received Losartan during 4 weeks as additional control group (LOS group, n=3). All protocols and treatments were”, “using Olympus analysis software.” for “with the approval of the French government ethics committee. Urine samples were collected for a 4-h period. Urinary protein concentration was normalized to creatinine concentration, and values were expressed as grams protein per millimole creatinine. Blood samples were withdrawn on the last day of the study, and plasma creatinine (nmol/l) was measured by automated Jaffe's method.”

[5] = all losartan-treated groups compared to L-NAME 6w and 10w groups

Compound	periostin expression in renal cortex ([1]; L-NAME+losartan 4 weeks, NOREG group)	periostin mRNA and protein expression in renal cortex ([1]; L-NAME+losartan 4 weeks, REG group)	vimentin mRNA expression in renal cortex ([1]; after initiation of losartan in L-NAME rats, irrespective of the REG/NOREG group)	creatininemia ([2]; after 4 weeks Losartan (30 mg/kg/day orally)+LNAME, "No Regression" (NOREG) group) [µmol/L]	creatininemia ([2]; after 4 weeks Losartan (30 mg/kg/day orally)+LNAME, "Regression" (REG) group) [µmol/L]	proteinuria [2, 5]	renal hemodynamic alterations [3, 5]	periostin mRNA up-regulation in kidney (RT-qPCR) ([1]; after 6 weeks LNAME) [fold]	periostin mRNA up-regulation in kidney (RT-qPCR) ([1]; after 10 weeks LNAME) [fold]	CD3+ lymphocyte count [4]	proteinuria ([2]; rats, L-NAME, week 6) [g/mmol creatininuria]	creatininemia ([2]; rats, L-NAME, week 10) [µmol/L]	MAP (mean arterial pressure) ([3]; rats, 6 weeks treatment) [mmHg]	MAP (mean arterial pressure) ([3]; rats, 10 weeks treatment) [mmHg]	renal blood flow ([3]; rats, from 6 weeks LNAME treatment onwards)
CCCCc1nc(Cl)c(CO)n1Cc1ccc(-c2ccccc2-c2nn[nH]n2)cc1 [Losartan]	persistent increase	significantly blunted	sharp decrease	76 ± 3	50 ± 2	ameliorated	ameliorated	–	–	–	–	–	–	–	–
COC(=O)[C@@H](N)CCCNC(=N)N[N+](=O)[O-] [LNAME, L-NAME]	–	–	–	–	–	–	–	13	18	strongly increased	1.3±0.2	100 ± 14	211±7	212±5	striking reduction
